This passage reports IC50 results from patent publication US9249129B2, “Morpholino substituted urea derivatives as mTOR inhibitors” (CELLZOME LIMITED, priority 2010, dated 2016).

pIC50: −log10 of the molar value. Where two headings read alike, the source gives them in different places.

Assay [1] addresses T1, mTOR (Homo sapiens, UniProt P42345).
T1 construct: endogenous in cells; host or cells: Jurkat cells (ATCC TIB-152, clone E6-1), lysate
Kind of assay: mTOR kinobeads assay (dot blot detection). The class given is binding. In outline: (§1)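 Jurkat cell lysate (5 mg/mL protein) incubated 2 h in the cold with test compound (9-step 1:3 series) and immobilized phenylthiazole/phenylmorpholin-chromen ligand beads. Bead-bound kinases eluted, detected by specific antibody dot blot with infrared readout; IC50 from dose-response curves.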

The target of assay [2] is T2, PI3K delta (PI3Kd) (Homo sapiens, UniProt O00329).
T2 construct: endogenous in cells; host or cells: Jurkat cells (ATCC TIB-152, clone E6-1), lysate
Kind of assay: kinobeads assay, PI3K delta (dot blot detection). The class given is binding. A digest of the protocol:
as §1

Assay [3] deals with T3, DNA-dependent protein kinase (DNA-PK) (Homo sapiens, UniProt P78527).
T3 construct: endogenous in cells; host or cells: Jurkat cells (ATCC TIB-152, clone E6-1), lysate
Kind of assay: kinobeads assay, DNA-PK (dot blot detection). The format is binding. A digest of the protocol: as §1

Assay [4] addresses T4, PI3Kα (Homo sapiens, UniProt P42336).
T4 construct: endogenous in cells; host or cells: Jurkat cells (ATCC TIB-152) lysate, the only lysate described
Kind of assay: kinobeads assay, PI3K alpha (dot blot detection). The format is binding. As to conditions: Table 4, read-out: Inhibition values (IC50) PI3Ka.

The target of assay [5] is T5, PI3Kβ (Homo sapiens, UniProt P42338).
T5 construct: endogenous in cells; host or cells: Jurkat cells (ATCC TIB-152) lysate, the only lysate described
Kind of assay: kinobeads assay, PI3K beta (dot blot detection). As to conditions: Table 4, read-out: Inhibition values (IC50) PI3Kb. The class given is binding.

Assay [6] has as its target T6, PI3Kγ (Homo sapiens, UniProt P48736).
T6 construct: endogenous in cells; host or cells: Jurkat cells (ATCC TIB-152) lysate, the only lysate described
The experiment in a line: kinobeads assay, PI3K gamma (dot blot detection). The class given is binding. The following applies: Table 4, read-out: Inhibition values (IC50) PI3Kg.

Assay [7] relates to S6RP serine-240/244 phosphorylation in HEK293T/17 cells. The experiment in a line: In vitro phospho-S6 cellular assay (pS6RP S240/244). The format is cell-based. As to conditions: Homo sapiens, Table 6, 2 hours, S6RP Ser240/244, read-out: pS6 (phospho-S6 cell assay data, activity level). A digest of the protocol: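 HEK293T/17 cells in DMEM with 2% FCS treated with 8 compound concentrations (0.1% DMSO) for 2 h at 37 °C, then lysed. Phospho-S6RP Ser240/244 or phospho-Akt Ser473 quantified by MesoScale sandwich immunoassay with Sulfo-Tag detection; IC50 from variable-slope sigmoidal fit.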

Setting [8] is: Table 2, Jurkat cell lysate, read-out: Inhibition values (IC50) mTor.
[9] abbreviates: Table 4, read-out: Inhibition values (IC50) mTOR.
The mark [10] stands for this setting: Table 2, Jurkat cell lysate, read-out: Inhibition values (IC50) PI3Kd.
The mark [11] stands for this setting: Table 4, read-out: Inhibition values (IC50) PI3Kd.
Setting [12] is: Table 2, Jurkat cell lysate, read-out: Inhibition values (IC50) DNAPK.
[13] abbreviates: Table 4, read-out: Inhibition values (IC50) DNAPK.

T5 sequence (P42338 whole entry): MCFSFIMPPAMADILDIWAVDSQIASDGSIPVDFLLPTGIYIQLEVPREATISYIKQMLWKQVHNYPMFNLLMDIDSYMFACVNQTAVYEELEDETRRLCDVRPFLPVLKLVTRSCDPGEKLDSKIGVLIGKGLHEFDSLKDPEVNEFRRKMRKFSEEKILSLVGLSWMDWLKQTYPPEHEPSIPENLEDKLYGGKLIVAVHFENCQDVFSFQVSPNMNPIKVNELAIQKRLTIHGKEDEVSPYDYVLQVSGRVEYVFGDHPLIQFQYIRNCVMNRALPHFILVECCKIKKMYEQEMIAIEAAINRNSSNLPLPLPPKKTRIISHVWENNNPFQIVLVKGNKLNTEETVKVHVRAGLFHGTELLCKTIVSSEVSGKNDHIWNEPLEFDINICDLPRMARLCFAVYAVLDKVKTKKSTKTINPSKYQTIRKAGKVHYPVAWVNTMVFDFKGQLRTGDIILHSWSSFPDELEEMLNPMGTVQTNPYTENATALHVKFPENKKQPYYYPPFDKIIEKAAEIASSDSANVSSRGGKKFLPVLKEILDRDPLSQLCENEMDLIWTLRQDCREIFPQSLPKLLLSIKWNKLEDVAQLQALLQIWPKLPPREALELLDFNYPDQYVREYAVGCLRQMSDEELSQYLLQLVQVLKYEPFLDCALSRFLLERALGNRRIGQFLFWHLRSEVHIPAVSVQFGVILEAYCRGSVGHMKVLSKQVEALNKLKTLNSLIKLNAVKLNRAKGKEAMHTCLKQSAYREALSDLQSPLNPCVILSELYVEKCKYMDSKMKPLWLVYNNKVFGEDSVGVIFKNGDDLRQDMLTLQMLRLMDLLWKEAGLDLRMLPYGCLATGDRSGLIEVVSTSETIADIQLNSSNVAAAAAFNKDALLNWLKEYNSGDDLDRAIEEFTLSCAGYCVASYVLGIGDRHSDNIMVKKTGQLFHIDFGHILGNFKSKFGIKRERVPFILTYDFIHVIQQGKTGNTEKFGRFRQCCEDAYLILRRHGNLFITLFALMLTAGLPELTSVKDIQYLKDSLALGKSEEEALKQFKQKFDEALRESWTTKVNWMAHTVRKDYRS
T5 sequence (P27986 whole entry partner): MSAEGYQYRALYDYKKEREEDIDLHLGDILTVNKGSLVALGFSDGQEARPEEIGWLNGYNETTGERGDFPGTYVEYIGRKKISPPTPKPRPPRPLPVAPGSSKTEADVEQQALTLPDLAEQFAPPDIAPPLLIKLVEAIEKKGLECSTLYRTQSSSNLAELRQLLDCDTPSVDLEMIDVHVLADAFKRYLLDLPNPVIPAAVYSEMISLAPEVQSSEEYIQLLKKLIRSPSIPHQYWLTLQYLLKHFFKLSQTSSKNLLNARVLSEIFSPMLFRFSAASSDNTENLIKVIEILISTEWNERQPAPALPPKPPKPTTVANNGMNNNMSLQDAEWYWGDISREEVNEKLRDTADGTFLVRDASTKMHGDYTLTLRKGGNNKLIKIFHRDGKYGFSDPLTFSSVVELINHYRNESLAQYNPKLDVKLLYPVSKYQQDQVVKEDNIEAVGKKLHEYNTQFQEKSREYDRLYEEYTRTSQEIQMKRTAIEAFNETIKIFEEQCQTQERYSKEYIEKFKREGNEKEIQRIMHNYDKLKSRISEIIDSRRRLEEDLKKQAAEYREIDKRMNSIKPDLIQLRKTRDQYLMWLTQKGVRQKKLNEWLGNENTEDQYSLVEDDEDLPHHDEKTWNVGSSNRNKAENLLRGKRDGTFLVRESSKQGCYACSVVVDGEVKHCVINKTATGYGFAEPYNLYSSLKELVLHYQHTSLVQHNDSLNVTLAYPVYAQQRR
T6 sequence (P48736 whole entry): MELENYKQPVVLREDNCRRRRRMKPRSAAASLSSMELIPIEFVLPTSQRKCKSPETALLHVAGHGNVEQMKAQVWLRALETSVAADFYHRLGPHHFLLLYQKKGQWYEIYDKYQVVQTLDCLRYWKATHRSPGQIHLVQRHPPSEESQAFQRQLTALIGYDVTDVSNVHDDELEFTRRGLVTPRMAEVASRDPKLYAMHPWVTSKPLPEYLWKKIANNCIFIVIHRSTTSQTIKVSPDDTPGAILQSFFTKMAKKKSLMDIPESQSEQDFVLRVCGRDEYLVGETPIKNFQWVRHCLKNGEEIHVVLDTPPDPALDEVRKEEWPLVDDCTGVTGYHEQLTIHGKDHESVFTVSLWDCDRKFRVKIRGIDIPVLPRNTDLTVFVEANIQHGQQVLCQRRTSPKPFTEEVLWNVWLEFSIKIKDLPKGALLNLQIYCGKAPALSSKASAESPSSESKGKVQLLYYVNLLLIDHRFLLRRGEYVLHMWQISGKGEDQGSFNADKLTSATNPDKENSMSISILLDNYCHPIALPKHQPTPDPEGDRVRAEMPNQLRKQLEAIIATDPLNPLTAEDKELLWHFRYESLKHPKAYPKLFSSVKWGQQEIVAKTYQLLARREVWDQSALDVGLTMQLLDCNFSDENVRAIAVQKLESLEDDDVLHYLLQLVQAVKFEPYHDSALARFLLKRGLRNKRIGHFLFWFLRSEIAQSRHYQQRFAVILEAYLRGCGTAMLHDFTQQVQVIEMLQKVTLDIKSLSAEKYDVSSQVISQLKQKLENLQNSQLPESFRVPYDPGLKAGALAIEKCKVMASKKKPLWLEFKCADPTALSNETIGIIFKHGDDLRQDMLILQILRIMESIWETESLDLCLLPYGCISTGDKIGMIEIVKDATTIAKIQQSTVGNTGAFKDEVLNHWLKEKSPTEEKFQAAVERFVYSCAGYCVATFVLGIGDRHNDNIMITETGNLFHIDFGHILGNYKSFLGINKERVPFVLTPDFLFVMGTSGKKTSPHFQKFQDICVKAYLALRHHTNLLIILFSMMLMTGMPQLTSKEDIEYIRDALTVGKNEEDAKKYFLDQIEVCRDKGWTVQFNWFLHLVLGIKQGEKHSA
T2 sequence (O00329 whole entry): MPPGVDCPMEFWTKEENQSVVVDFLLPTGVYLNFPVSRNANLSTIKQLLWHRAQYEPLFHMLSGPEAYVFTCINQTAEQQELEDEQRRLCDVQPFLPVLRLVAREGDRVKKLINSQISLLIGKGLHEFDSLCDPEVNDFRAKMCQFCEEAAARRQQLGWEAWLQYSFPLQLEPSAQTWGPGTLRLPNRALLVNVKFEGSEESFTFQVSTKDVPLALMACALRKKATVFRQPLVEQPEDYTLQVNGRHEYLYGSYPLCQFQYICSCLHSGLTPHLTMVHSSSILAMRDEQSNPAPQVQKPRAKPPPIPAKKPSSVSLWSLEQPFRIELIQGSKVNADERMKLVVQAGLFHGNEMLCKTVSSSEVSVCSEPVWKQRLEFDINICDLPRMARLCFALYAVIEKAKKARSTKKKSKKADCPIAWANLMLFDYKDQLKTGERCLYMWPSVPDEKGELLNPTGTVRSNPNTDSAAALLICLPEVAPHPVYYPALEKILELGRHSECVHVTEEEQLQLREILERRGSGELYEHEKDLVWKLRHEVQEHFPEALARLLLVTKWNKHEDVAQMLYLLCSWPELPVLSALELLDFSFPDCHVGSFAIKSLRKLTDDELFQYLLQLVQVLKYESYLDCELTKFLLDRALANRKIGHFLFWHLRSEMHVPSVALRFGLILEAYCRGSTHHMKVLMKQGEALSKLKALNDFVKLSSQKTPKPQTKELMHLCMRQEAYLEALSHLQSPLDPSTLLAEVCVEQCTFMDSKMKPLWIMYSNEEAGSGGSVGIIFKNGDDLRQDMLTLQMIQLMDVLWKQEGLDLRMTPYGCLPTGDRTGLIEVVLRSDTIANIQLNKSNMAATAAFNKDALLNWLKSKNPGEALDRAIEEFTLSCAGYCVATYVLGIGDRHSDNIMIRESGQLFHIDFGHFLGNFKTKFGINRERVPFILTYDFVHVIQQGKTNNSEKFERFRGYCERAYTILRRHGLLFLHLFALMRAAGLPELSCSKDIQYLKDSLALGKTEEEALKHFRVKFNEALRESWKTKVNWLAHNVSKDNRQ
T2 sequence (P27986 whole entry partner): as the sequence (P27986 whole entry partner) above
T4 sequence (P42336 whole entry): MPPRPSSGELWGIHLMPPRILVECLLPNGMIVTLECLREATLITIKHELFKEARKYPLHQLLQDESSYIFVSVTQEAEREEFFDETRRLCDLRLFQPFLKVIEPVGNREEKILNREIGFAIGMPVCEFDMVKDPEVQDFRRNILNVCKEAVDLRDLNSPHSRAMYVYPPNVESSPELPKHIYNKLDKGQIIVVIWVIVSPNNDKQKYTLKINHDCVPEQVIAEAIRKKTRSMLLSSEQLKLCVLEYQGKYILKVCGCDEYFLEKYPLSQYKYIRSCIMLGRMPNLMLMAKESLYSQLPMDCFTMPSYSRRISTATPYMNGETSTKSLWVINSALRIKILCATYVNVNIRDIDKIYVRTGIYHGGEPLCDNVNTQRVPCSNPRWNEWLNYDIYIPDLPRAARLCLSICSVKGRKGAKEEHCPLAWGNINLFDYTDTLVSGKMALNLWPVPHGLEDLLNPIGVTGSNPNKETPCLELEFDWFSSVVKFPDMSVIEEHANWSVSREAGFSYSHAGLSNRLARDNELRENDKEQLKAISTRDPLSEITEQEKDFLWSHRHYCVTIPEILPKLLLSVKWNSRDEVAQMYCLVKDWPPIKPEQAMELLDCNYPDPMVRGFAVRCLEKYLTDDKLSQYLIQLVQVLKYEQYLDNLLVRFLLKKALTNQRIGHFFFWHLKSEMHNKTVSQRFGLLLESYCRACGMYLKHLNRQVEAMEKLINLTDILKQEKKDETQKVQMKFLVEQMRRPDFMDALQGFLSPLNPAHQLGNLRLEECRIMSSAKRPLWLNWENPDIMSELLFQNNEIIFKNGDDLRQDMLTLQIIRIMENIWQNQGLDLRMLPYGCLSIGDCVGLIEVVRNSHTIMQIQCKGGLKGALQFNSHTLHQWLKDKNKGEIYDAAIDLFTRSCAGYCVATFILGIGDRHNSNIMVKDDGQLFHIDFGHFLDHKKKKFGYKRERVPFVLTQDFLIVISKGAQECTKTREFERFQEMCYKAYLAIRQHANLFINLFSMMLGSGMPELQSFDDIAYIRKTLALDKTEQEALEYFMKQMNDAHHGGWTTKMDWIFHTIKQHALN
T4 sequence (P27986 whole entry partner): as the sequence (P27986 whole entry partner) above

For the compound `C[C@H]1COCCN1c1ccnc(-c2ccc(NC(=O)NCCF)cc2)n1` [Example 55, (S)-1-(2-fluoroethyl)-3-(4-(4-(3-methylmorpholino)pyrimidin-2-yl)phenyl)urea], the pIC50 in assay [1] (setting [8]) is 6.00 to 7.00; in assay [1] (setting [9]), 6.00 to 7.00; in assay [2] (setting [10]), at most 5.00; in assay [2] (setting [11]), at most 5.00; in assay [3] (setting [12]), at most 5.00; in assay [3] (setting [13]), at most 5.00. Moreover, the pIC50 in assay [4] is at most 5.00; in assay [5], at most 5.00; in assay [6], at most 5.00; in assay [7], 6.00 to 7.00.
Consider `CCNC(=O)Nc1ccc(-c2ccnc(N3CC4CCC(C3)O4)n2)cc1` [Example 56, 1-(4-(2-(8-oxa-3-azabicyclo[3.2.1]octan-3-yl)pyrimidin-4-yl)phenyl)-3-ethylurea], for which the pIC50 in assay [1] (setting [8]) was 5.00 to 6.00; in assay [1] (setting [9]) it was 5.00 to 6.00; in assay [2] (setting [10]), at most 5.00; in assay [2] (setting [11]), at most 5.00; in assay [3] (setting [12]), at most 5.00; in assay [3] (setting [13]), at most 5.00. In addition, the pIC50 was at most 5.00 in assay [4], at most 5.00 in assay [5], at most 5.00 in assay [6] and 6.00 to 7.00 in assay [7].
As to `O=C(Nc1ccc(-c2ccnc(N3CC4CCC(C3)O4)n2)cc1)NC1CC1` [Example 57, 1-(4-(2-(8-oxa-3-azabicyclo[3.2.1]octan-3-yl)pyrimidin-4-yl)phenyl)-3-cyclopropylurea], the pIC50 in assay [1] (setting [8]) is 5.00 to 6.00; in assay [1] (setting [9]), 5.00 to 6.00; in assay [2] (setting [10]), at most 5.00; in assay [2] (setting [11]), at most 5.00; in assay [3] (setting [12]), at most 5.00; in assay [3] (setting [13]), at most 5.00. The pIC50 in assay [4] was at most 5.00; in assay [5] it was at most 5.00; in assay [6] it was at most 5.00; in assay [7] it was 6.00 to 7.00.
With `C[C@H]1COCCN1c1nccc(-c2ccc(NC(=O)NCCO)cc2)n1` [Example 58, (S)-1-(2-hydroxyethyl)-3-(4-(2-(3-methylmorpholino)pyrimidin-4-yl)phenyl)urea], the pIC50 is 5.00 to 6.00 in assay [1] (setting [8]); 5.00 to 6.00 in assay [1] (setting [9]); at most 5.00 in assay [2] (setting [10]); at most 5.00 in assay [2] (setting [11]); at most 5.00 in assay [3] (setting [12]); at most 5.00 in assay [3] (setting [13]). Further, the pIC50 in assay [4] is at most 5.00; in assay [5], at most 5.00; in assay [6], at most 5.00; in assay [7] it was 6.00 to 7.00.
`O=C(NCCO)Nc1ccc(-c2ccnc(N3CC4CCC(C3)O4)n2)cc1` [Example 59, 1-(4-(2-(8-oxa-3-azabicyclo[3.2.1]octan-3-yl)pyrimidin-4-yl)phenyl)-3-(2-hydroxyethyl)urea]: the pIC50 was 5.00 to 6.00 in assay [1] (setting [8]); 5.00 to 6.00 in assay [1] (setting [9]); at most 5.00 in assay [2] (setting [10]); at most 5.00 in assay [2] (setting [11]); at most 5.00 in assay [3] (setting [12]); at most 5.00 in assay [3] (setting [13]). The pIC50 in assay [4] is at most 5.00; in assay [5], at most 5.00; in assay [6], at most 5.00; in assay [7], 6.00 to 7.00.
For `C[C@H]1COCCN1c1cc(-c2cncc(F)c2)nc(-c2ccc(NC(=O)NC3CC3)cc2F)n1` [Example 63, (S)-1-cyclopropyl-3-(3-fluoro-4-(4-(5-fluoropyridin-3-yl)-6-(3-methylmorpholino)pyrimidin-2-yl)phenyl)urea], the pIC50 in assay [1] (setting [8]) was 5.00 to 6.00; in assay [1] (setting [9]) it was 5.00 to 6.00; in assay [2] (setting [10]), at most 5.00; in assay [2] (setting [11]), at most 5.00; in assay [3] (setting [12]) it was at most 5.00; in assay [3] (setting [13]), at most 5.00. In addition, the pIC50 in assay [4] is at most 5.00; in assay [5] it was at most 5.00; in assay [6], at most 5.00; in assay [7], 6.00 to 7.00.
Turning to `C[C@H]1COCCN1c1cc(-c2cncc(F)c2)nc(-c2ccc(NC(=O)NCCO)cc2F)n1` [Example 65, (S)-1-(3-fluoro-4-(4-(5-fluoropyridin-3-yl)-6-(3-methylmorpholino)pyrimidin-2-yl)phenyl)-3-(2-hydroxyethyl)urea], the pIC50 is 6.00 to 7.00 in assay [1] (setting [8]); 6.00 to 7.00 in assay [1] (setting [9]); at most 5.00 in assay [2] (setting [10]); at most 5.00 in assay [2] (setting [11]); at most 5.00 in assay [3] (setting [12]); at most 5.00 in assay [3] (setting [13]). Also, the pIC50 is at most 5.00 in assay [4], at most 5.00 in assay [5], at most 5.00 in assay [6] and 6.00 to 7.00 in assay [7].
Turning to `C[C@H]1COCCN1c1cc(-c2cc(F)ccc2S(C)(=O)=O)nc(-c2ccc(NC(=O)NC3CC3)cc2F)n1` [Example 66, (S)-1-cyclopropyl-3-(3-fluoro-4-(4-(5-fluoro-2-(methylsulfonyl)phenyl)-6-(3-methylmorpholino)pyrimidin-2-yl)phenyl)urea], the pIC50 in assay [1] (setting [8]) was 5.00 to 6.00; in assay [1] (setting [9]), 5.00 to 6.00; in assay [2] (setting [10]), at most 5.00; in assay [2] (setting [11]), at most 5.00; in assay [3] (setting [12]), at most 5.00; in assay [3] (setting [13]) it was at most 5.00. The pIC50 in assay [4] is at most 5.00; in assay [5], at most 5.00; in assay [6], at most 5.00; in assay [7] it was 6.00 to 7.00.
As to `C[C@H]1COCCN1c1cc(-c2cncc(F)c2)nc(-c2ccc(NC(=O)NCCF)cc2F)n1` [Example 67, (S)-1-(3-fluoro-4-(4-(5-fluoropyridin-3-yl)-6-(3-methylmorpholino)pyrimidin-2-yl)phenyl)-3-(2-fluoroethyl)urea], the pIC50 was 5.00 to 6.00 in assay [1] (setting [8]); 5.00 to 6.00 in assay [1] (setting [9]); at most 5.00 in assay [2] (setting [10]); at most 5.00 in assay [2] (setting [11]); at most 5.00 in assay [3] (setting [12]); at most 5.00 in assay [3] (setting [13]). Besides, the pIC50 in assay [4] is at most 5.00; in assay [5], at most 5.00; in assay [6], at most 5.00; in assay [7] it was 6.00 to 7.00.
Turning to `C[C@H]1COCCN1c1cc(-c2cc(F)ccc2S(C)(=O)=O)nc(-c2ccc(NC(=O)NCCF)cc2F)n1` [Example 68, (S)-1-(3-fluoro-4-(4-(5-fluoro-2-(methylsulfonyl)phenyl)-6-(3-methylmorpholino)pyrimidin-2-yl)phenyl)-3-(2-fluoroethyl)urea], the pIC50 in assay [1] (setting [8]) was 5.00 to 6.00; in assay [1] (setting [9]), 5.00 to 6.00; in assay [2] (setting [10]), at most 5.00; in assay [2] (setting [11]), at most 5.00; in assay [3] (setting [12]), at most 5.00; in assay [3] (setting [13]), at most 5.00. The pIC50 in assay [4] was at most 5.00; in assay [5], at most 5.00; in assay [6], at most 5.00; in assay [7], 6.00 to 7.00.
`C[C@H]1COCCN1c1nc(-c2ccc(NC(=O)NC(C)(C)CO)cc2)cc(-c2cc(F)ccc2S(C)(=O)=O)n1` [Example 69, (S)-1-(4-(6-(5-fluoro-2-(methylsulfonyl)phenyl)-2-(3-methylmorpholino)pyrimidin-4-yl)phenyl)-3-(1-hydroxy-2-methylpropan-2-yl)urea]: the pIC50 was 5.00 to 6.00 in assay [1] (setting [8]); 5.00 to 6.00 in assay [1] (setting [9]); at most 5.00 in assay [2] (setting [10]); at most 5.00 in assay [2] (setting [11]); at most 5.00 in assay [3] (setting [12]); at most 5.00 in assay [3] (setting [13]). The pIC50 in assay [4] was at most 5.00; in assay [5], at most 5.00; in assay [6], at most 5.00; in assay [7] it was above 7.00.
On to `C[C@H]1COCCN1c1nc(-c2ccc(NC(=O)NCC(N)=O)cc2)cc(-c2cc(F)ccc2S(C)(=O)=O)n1` [Example 70, (S)-2-(3-(4-(6-(5-fluoro-2-(methylsulfonyl)phenyl)-2-(3-methylmorpholino)pyrimidin-4-yl)phenyl)ureido)acetamide], for which the pIC50 in assay [1] (setting [8]) was 5.00 to 6.00; in assay [1] (setting [9]), 5.00 to 6.00; in assay [2] (setting [10]) it was at most 5.00; in assay [2] (setting [11]) it was at most 5.00; in assay [3] (setting [12]), at most 5.00; in assay [3] (setting [13]), at most 5.00. In addition, the pIC50 was at most 5.00 in assay [4], at most 5.00 in assay [5], at most 5.00 in assay [6] and 6.00 to 7.00 in assay [7].
For `CC(O)CNC(=O)Nc1ccc(-c2cc(-c3cc(F)ccc3S(C)(=O)=O)nc(N3CCOC[C@@H]3C)n2)cc1` (stereo partly drawn) [Example 71, 1-(4-(6-(5-fluoro-2-(methylsulfonyl)phenyl)-2-((S)-3-methylmorpholino)pyrimidin-4-yl)phenyl)-3-(2-hydroxypropyl)urea], the pIC50 is 6.00 to 7.00 in assay [1] (setting [8]); 6.00 to 7.00 in assay [1] (setting [9]); at most 5.00 in assay [2] (setting [10]); at most 5.00 in assay [2] (setting [11]); at most 5.00 in assay [3] (setting [12]); at most 5.00 in assay [3] (setting [13]). Further, the pIC50 in assay [4] was at most 5.00; in assay [5], at most 5.00; in assay [6], at most 5.00; in assay [7], above 7.00.
